Experimental data as given in patent US20110124523A1, “High Throughput Method for Detecting Apoptosis of Embryonic Stages of Metazoan Helminthic Parasites” (INSTITUTE OF LIFE SCIENCES, priority 2009, published 2011).
Values joined by “and” are separate entries in the source; they are usually repeats but may differ in a detail not shown here. Equal entries are not always repeated.

Tested on: embryonic stages of S. digitata
Test: Externalization of phosphatidyl serine, Annexin-V-PE staining, flow cytometry
Format: cell-based, Setaria digitata
Conditions: for GMI (Geometric Mean Intensity) of Fluorescence, Annexin-V-PE Staining: 24 hr; for externalization of Phosphatidyl serine (result in words): Microfilariae and eggs, Annexin-V-PE staining
Protocol: Adult female filarial worms Setaria digitata were collected from the peritoneum of cattle, slaughtered at a nearby abattoir in sterile Hanks Balanced Salt Solution (HBSS) medium (Sigma H 2387-1L) and transported to the laboratory in a sterile container. The medium containing 1% glucose (Sigma G 7528), Penicillin 100 units/ml, Streptomycin 100 μg/ml (Sigma P 4333). And Amphotericin-B 0.25 μg/ml (Sigma A 2942) was buffered with NaHCO3 (Sigma S 5761). About 5 to 7 worms were taken in a petridish, washed three times in medium, dissected into small pieces in 10 ml of medium under sterile conditions and incubated at 37° C. for 30 minutes to allow the release of embryonic stages (eggs and microfilariae) into the medium. The embryonic stages were harvested into sterile 15 ml. centrifuge tubes and washed three times by centrifuging at 300 g for 10 minutes each with medium and the final pellet was suspended in 1 ml. of RPMI-1640 medium (Sigma R 8005) supplemented with 10% FBS (Sigma F 2442) The number of embryonic stages of S. digitata in the above preparation were counted using light microscope, and the suspension was taken in RPMI-1640 medium containing 10% FBS at 1×10^5 embryonic stages/ml. One ml. each was dispensed into individual wells of a 24 well tissue culture plate. One set of wells was taken as untreated control containing only medium with 10% FBS. […] Motility of the Mf was scored under an inverted microscope. After appropriate treatment and incubation, each set of the cultured embryonic stages of S. digitata were harvested from the 24 well tissue culture plate separately in 15 ml. sterile centrifuge tubes, washed with PBS twice and stained as per requirement following manufacturer's instructions as described below. This was followed by two times washing with PBS and final suspension of the stained embryonic stages was taken in 0.5 ml of sheath fluid (BD Biosciences 342003) before their acquisition in the flow cytometer (BD FACS Calibur, Becten and Dickinson, USA). Analysis was performed on 10,000-acquired events depicted as Dot Plots and Histogram Plots using Cellquest Pro soft ware. All plots were representative of at least 3 experiments. The distinctly clustered populations obtained consistently in the Dot plots for the intra uterine embryonic stages of S. digitata (FIG. 1 a) were gated for Mfs (R-1) and eggs (R-2 and R-3) and analyzed for different assays for apoptosis as described below. The externalization of phosphatidyl serine was detected by staining the embryonic stages with Annexin-V-PE (BD Biosciences 556421) as per the instructions of the manufacturer. Briefly, the embryonic stages of S. digitata were subjected to various treatments in culture for 24 hrs. After the said period of incubation the embryonic stages were harvested, washed with ice cold PBS twice and resuspended in 100 μl of 1× Annexin-V binding buffer (BD Biosciences 556454) at 1×10^5 embryonic stages per ml. to which 5 μl of Annexin-V-PE was added. After 15 minutes of Incubation in dark at room temperature another 400 μl of 1× Annexin-V binding buffer was added to the above suspension. The resulting 500 μl suspension of Annexin-V-PE stained embryonic stages was then acquired and analyzed by flow cytometer.

OO [H2O2]
GMI (Geometric Mean Intensity) of Fluorescence, Annexin-V-PE Staining (Eggs, 10 μM): 30.95 and 33.55 and 35.75 | externalization of Phosphatidyl serine (result in words): dose dependent externalization of Phosphatidyl serine was observed | GMI (Geometric Mean Intensity) of Fluorescence, Annexin-V-PE Staining (Microfilariae, 10 μM): 9.75 and 11.02 and 10.35

CC1=CC(=O)c2c(O)cccc2C1=O [Plumbagin]
GMI (Geometric Mean Intensity) of Fluorescence, Annexin-V-PE Staining (Eggs, 10 μM): 81.25 and 85.22 and 89.36 | externalization of Phosphatidyl serine (result in words): dose dependent externalization of Phosphatidyl serine was observed | GMI (Geometric Mean Intensity) of Fluorescence, Annexin-V-PE Staining (Microfilariae, 10 μM): 11.95 and 12.52 and 13.56

CN[C@@H]1C[C@H]2O[C@@](C)([C@@H]1OC)n1c3ccccc3c3c4c(c5c6ccccc6n2c5c31)C(=O)NC4 [Staurosporine]
GMI (Geometric Mean Intensity) of Fluorescence, Annexin-V-PE Staining (Eggs, 1 μM): 27.59 and 28.53 and 30.63 | externalization of Phosphatidyl serine (result in words): did not mediate such effects on Phosphatidyl serine externalization | GMI (Geometric Mean Intensity) of Fluorescence, Annexin-V-PE Staining (Microfilariae, 1 μM): 7.24 and 8.03 and 8.52
